Tested on: multi-drug resistant bacteria
Assay type: in vivo, hospitalized patients
Text: Using the case-control experiment, all newly-increased patients with multi-drug resistant bacteria in the cooperative hospital are selected for a period of time. The hospitalized patients are divided into the control group and the experimental group, and the control group is selected to be applied intranasally with mupirocin for 5 consecutive days and twice daily.
During the experiment, it can be found by electron microscopy at 200-fold whether mucosa has interstitial edema, inflammatory cell infiltration or surface epithelial cell shedding; it can show by electron microscopy at 6000-fold whether the mitochondria in the glandular epithelial cells are swollen or edema, it can show by electron microscopy at 10000-fold whether the morphology and structure of the ciliated epithelial cells is normal. FIGS. 1 and 2 are the electron microscopic images of the nasal mucosa by electron microscopy at 200-fold.

[1] = hospitalized patients, decolonization drug twice a day 3 days, mupirocin twice daily 5 days

`C/C(=C\C(=O)OCCCCCCCCC(=O)O)C[C@@H]1OC[C@H](C[C@@H]2O[C@H]2[C@@H](C)[C@H](C)O)[C@@H](O)[C@H]1O` [mupirocin] was tested, and the “cases of methicillin-resistant Staphylococcus aureus (MRSA)” value [1] was 35 cases, the “cases of multi-drug resistant bacteria” value [1] was 120 cases and the “ratio of MRSA cases among multi-drug resistant bacteria cases” value [1] was 29.16%. For the same compound, the “adverse reactions (edema and hyperemia symptoms of nasal mucosa)” value (human, in vivo, 5 days) was 2.
